Results on 20 compounds are retold here after PubChem BioAssay (NCI).

Among the test systems are COLO 205 colon; HCT-15 colon; HOP-62 NSCLC; HT29 colon; MOLT-4 leukemia; OVCAR-8 ovarian; RXF 393 renal; SNB-19 CNS; TK-10 renal; UACC-257 melanoma; OVCAR-3 ovarian; T-47D breast.
Common to all, as to assay: NCI tumour cell line growth inhibition, 48 h

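1) Cells in 96-well plates. 2) Compound, 48 h, 5 concentrations. 3) Linear interpolation between surrounding doses. 4) Unreached endpoint = highest concentration. The concentration for 50% growth inhibition is given as GI50. Definition used: TGI = concentration required for complete inhibition of growth.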 Some results are limits rather than exact numbers.

Regarding `Cc1nc(Nc2nnc(-c3cc([N+](=O)[O-])cc([N+](=O)[O-])c3C)o2)sc1C(=O)CC(=O)Cc1nc2ccc(Cl)cc2[nH]c1=O`, the TGI in the experiment on COLO 205 colon, in the experiment with HCT-15 colon, with HOP-62 NSCLC, in the experiment with HT29 colon, with MOLT-4 leukemia and in the experiment with OVCAR-8 ovarian was greater than 100 µM throughout. The TGI in the experiment with RXF 393 renal, in the experiment on SNB-19 CNS, in the experiment with TK-10 renal and with UACC-257 melanoma was greater than 100 µM each time.

As for `CC(=O)O[C@H]1CC[C@H]2[C@@H]3CCc4cc(O)c(I)cc4[C@H]3CC[C@]12C`, the TGI is 33.6 µM in the experiment with COLO 205 colon; 22.9 µM in the experiment with HCT-15 colon; 24 µM in the experiment on HOP-62 NSCLC; 33.2 µM with HT29 colon; 61.6 µM in the experiment on MOLT-4 leukemia; 31.4 µM in the experiment with OVCAR-3 ovarian. Moreover, the TGI with OVCAR-8 ovarian is 37.9 µM; in the experiment with SNB-19 CNS, 32.3 µM; in the experiment with T-47D breast, 31.7 µM; in the experiment on TK-10 renal, 33.6 µM; in the experiment on UACC-257 melanoma, 30 µM. For the same compound, in the experiment with HOP-62 NSCLC, the GI50 was 11 µM.

Turning to `O=[N+]([O-])C(/C(Cl)=C(/Cl)N1CCCCC1)=C1\NCCO1`, the TGI in the experiment with COLO 205 colon, in the experiment with HCT-15 colon, in the experiment on HOP-62 NSCLC, in the experiment on HT29 colon, in the experiment with MOLT-4 leukemia and in the experiment with OVCAR-3 ovarian was greater than 100 µM in each case. Besides, the TGI in the experiment on OVCAR-8 ovarian, in the experiment with SNB-19 CNS, with T-47D breast and in the experiment on UACC-257 melanoma was greater than 100 µM throughout.

In the case of `CCC1(O)CC(OC2CC(N(C)C)C(OC3CC(O)C(OC4OC(C)C(=O)C=C4N)C(C)O3)C(C)O2)c2c(O)c3c(c(O)c2C1C(=O)OC)C(=O)c1cccc(O)c1C3=O` (stereo not given), the TGI with COLO 205 colon came to 0.116 µM; with HCT-15 colon it was 1.17 µM; in the experiment on HOP-62 NSCLC it was 0.855 µM; in the experiment on HT29 colon, 0.215 µM; in the experiment on OVCAR-3 ovarian, 0.15 µM; in the experiment with OVCAR-8 ovarian, 0.261 µM. In addition, the values for the TGI in the experiment on SNB-19 CNS and in the experiment on TK-10 renal were 0.976 µM and 0.0778 µM, respectively.

For `COC(=O)c1cccc(NC(=O)Nc2ccc3oc(=O)c4ccccc4c3c2)c1`, the GI50 in the experiment on COLO 205 colon was greater than 100 µM; in the experiment on HCT-15 colon, greater than 100 µM; with HT29 colon, greater than 100 µM; in the experiment with MOLT-4 leukemia, 36.2 µM; in the experiment on OVCAR-3 ovarian, greater than 100 µM; with OVCAR-8 ovarian, greater than 100 µM. Besides, the GI50 with UACC-257 melanoma was greater than 100 µM. Moreover, the TGI in the experiment with COLO 205 colon, in the experiment with HCT-15 colon, in the experiment on HT29 colon, in the experiment on MOLT-4 leukemia, in the experiment with OVCAR-3 ovarian and in the experiment on OVCAR-8 ovarian was greater than 100 µM each time. In the experiment on UACC-257 melanoma, this compound displayed a TGI greater than 100 µM.

Regarding `CC(=O)OCc1nc(C#N)c(N)o1`, the TGI in the experiment with COLO 205 colon, in the experiment on HCT-15 colon, with HOP-62 NSCLC, with HT29 colon, with MOLT-4 leukemia and in the experiment on OVCAR-3 ovarian was greater than 100 µM each time. The TGI in the experiment with RXF 393 renal, with SNB-19 CNS, in the experiment on TK-10 renal and with UACC-257 melanoma was greater than 100 µM each time.

Take `CS(=O)(=O)c1nc(N)nc2nc[nH]c12`: the TGI in the experiment on COLO 205 colon, in the experiment on HCT-15 colon, in the experiment on HOP-62 NSCLC, in the experiment with HT29 colon, in the experiment on MOLT-4 leukemia and with OVCAR-3 ovarian was greater than 100 µM each time. The TGI in the experiment with OVCAR-8 ovarian, in the experiment with RXF 393 renal, with SNB-19 CNS, with TK-10 renal and with UACC-257 melanoma was greater than 100 µM in each case.

As for `CCSC(=Nc1ccccc1)SC`, the TGI with COLO 205 colon, in the experiment with HCT-15 colon, in the experiment on HOP-62 NSCLC, in the experiment on HT29 colon, in the experiment on MOLT-4 leukemia and in the experiment on OVCAR-3 ovarian was greater than 100 µM throughout. For the same compound, the TGI with OVCAR-8 ovarian, with RXF 393 renal, with SNB-19 CNS, in the experiment on TK-10 renal and in the experiment on UACC-257 melanoma was greater than 100 µM each time.

Consider `CC1CC(N)=Nc2ccccc2N1Cc1ccccc1` (stereo not given), for which the TGI with COLO 205 colon amounted to 28.1 µM; with HCT-15 colon it was 29.9 µM; with HOP-62 NSCLC, 27.2 µM; in the experiment on HT29 colon it was 27.4 µM; with MOLT-4 leukemia, 18.4 µM; in the experiment with OVCAR-3 ovarian, 24.9 µM. For the same compound, the TGI is 27.8 µM in the experiment on OVCAR-8 ovarian; 24.4 µM in the experiment on RXF 393 renal; 30.9 µM with SNB-19 CNS; 28.2 µM in the experiment with TK-10 renal; 25.5 µM with UACC-257 melanoma.

Take `N#CN=Nc1cc(Cl)c(N=NC#N)cc1Cl`: the TGI in the experiment with COLO 205 colon, with HCT-15 colon, in the experiment with HOP-62 NSCLC, with HT29 colon, in the experiment on MOLT-4 leukemia and in the experiment on OVCAR-3 ovarian was greater than 100 µM in each case. In addition, the TGI in the experiment on OVCAR-8 ovarian, in the experiment with RXF 393 renal, in the experiment on SNB-19 CNS, in the experiment with TK-10 renal and with UACC-257 melanoma was greater than 100 µM each time.

With `O=C(O)C(Cc1cccs1)NC(=O)C(F)(F)F` (stereo not given), the TGI with COLO 205 colon, in the experiment with HCT-15 colon, in the experiment with HOP-62 NSCLC, with HT29 colon, in the experiment on MOLT-4 leukemia and in the experiment on OVCAR-3 ovarian was greater than 100 µM each time. For the same compound, the TGI with OVCAR-8 ovarian, in the experiment on RXF 393 renal, in the experiment on SNB-19 CNS and in the experiment with UACC-257 melanoma was greater than 100 µM throughout.

As for `C#CCCCC(=C)C[C@H](OCc1ccccc1)[C@H]1OC(=O)[C@@H]1C`, the TGI in the experiment on HCT-15 colon, in the experiment on HOP-62 NSCLC, in the experiment with OVCAR-3 ovarian, in the experiment on OVCAR-8 ovarian, in the experiment on RXF 393 renal and in the experiment on SNB-19 CNS was greater than 100 µM each time. Further, the TGI in the experiment with TK-10 renal and in the experiment with UACC-257 melanoma was greater than 100 µM each time.

With `CN(C)CCOc1cc2c(c3ccccc13)-c1ccccc1C2=O`, the TGI is 3.68 µM in the experiment with COLO 205 colon; 4.19 µM in the experiment on HCT-15 colon; 3.95 µM in the experiment on HOP-62 NSCLC; 3.44 µM in the experiment on HT29 colon; 3.92 µM in the experiment with MOLT-4 leukemia; 4.99 µM in the experiment on OVCAR-3 ovarian. Also, the TGI was 3.23 µM with OVCAR-8 ovarian, 5.3 µM in the experiment with RXF 393 renal, 8.39 µM with SNB-19 CNS and 3.17 µM with UACC-257 melanoma.

For the compound `CCCCOC(=O)CN1C(=O)c2ccccc2C1=O`, the TGI in the experiment with COLO 205 colon, with HCT-15 colon, with HOP-62 NSCLC, in the experiment with HT29 colon, with MOLT-4 leukemia and with OVCAR-3 ovarian was greater than 100 µM throughout. The TGI with OVCAR-8 ovarian, with RXF 393 renal, in the experiment with SNB-19 CNS, in the experiment with TK-10 renal and in the experiment on UACC-257 melanoma was greater than 100 µM each time.

With `CCc1cc(-c2nsc(=O)o2)c(S(=O)(=O)CC)s1`, the TGI in the experiment with COLO 205 colon, with HCT-15 colon, with HOP-62 NSCLC, in the experiment on HT29 colon, in the experiment on OVCAR-3 ovarian and in the experiment on OVCAR-8 ovarian was greater than 100 µM each time. In addition, the TGI with SNB-19 CNS, in the experiment on T-47D breast and in the experiment with TK-10 renal was greater than 100 µM each time.

Take `O=C(O)C(Cc1ccc(O)cn1)NC(=O)C(F)(F)F` (stereo not given): the TGI in the experiment on COLO 205 colon, in the experiment on HCT-15 colon, in the experiment on HOP-62 NSCLC, in the experiment with HT29 colon, in the experiment on OVCAR-3 ovarian and in the experiment with OVCAR-8 ovarian was greater than 100 µM each time. In addition, the TGI in the experiment with RXF 393 renal, in the experiment with SNB-19 CNS, in the experiment on TK-10 renal and with UACC-257 melanoma was greater than 100 µM in each case.

Regarding `C=C(Cl)C(C)(Cl)CCC(Cl)C(C)(C)Cl` (stereo not given), the TGI in the experiment with COLO 205 colon is greater than 100 µM; in the experiment with HOP-62 NSCLC it was greater than 100 µM; with HT29 colon, greater than 100 µM; with MOLT-4 leukemia, 66.1 µM; in the experiment on OVCAR-3 ovarian it was greater than 100 µM; in the experiment with RXF 393 renal it was greater than 100 µM. In addition, the TGI with SNB-19 CNS, in the experiment with TK-10 renal and with UACC-257 melanoma was greater than 100 µM in each case.

Consider `COC(=O)[C@@H]1O[C@]12C(CO[Si](C)(C)C(C)(C)C)OC(n1ccc(=O)[nH]c1=O)C2O[Si](C)(C)C(C)(C)C` (stereo not given in full), for which the TGI in the experiment on COLO 205 colon was 69.7 µM; with HCT-15 colon, greater than 100 µM; with HOP-62 NSCLC, 48 µM; in the experiment with HT29 colon it was 43.4 µM; with MOLT-4 leukemia, 76.5 µM; with OVCAR-3 ovarian it was 30.8 µM. Besides, the TGI with OVCAR-8 ovarian was greater than 100 µM; in the experiment with SNB-19 CNS, greater than 100 µM; in the experiment with TK-10 renal, 83.9 µM; in the experiment on UACC-257 melanoma it was 57.5 µM.

On to `CC(N)Cc1cccc(C(F)(F)F)c1` (stereo not given), for which the TGI in the experiment with COLO 205 colon, with HCT-15 colon, with HOP-62 NSCLC, in the experiment with HT29 colon, with OVCAR-3 ovarian and in the experiment on OVCAR-8 ovarian was greater than 100 µM each time. For the same compound, the TGI in the experiment with RXF 393 renal, in the experiment on SNB-19 CNS, in the experiment on TK-10 renal and in the experiment on UACC-257 melanoma was greater than 100 µM each time.

In the case of `CC1CCCOc2ccc(cc2)C=Nc2ccc(cc2)CCc2ccc(cc2)N=Cc2ccc(cc2)OCCC1` (stereo not given), the TGI with COLO 205 colon, in the experiment with HCT-15 colon, in the experiment with HOP-62 NSCLC, in the experiment with HT29 colon, with MOLT-4 leukemia and with OVCAR-3 ovarian was greater than 100 µM throughout. In addition, the TGI in the experiment on OVCAR-8 ovarian, in the experiment on SNB-19 CNS, with TK-10 renal and in the experiment with UACC-257 melanoma was greater than 100 µM throughout.
